Measurements reported in patent EP4574147A1, “COMPOSITION FOR PREVENTING, AMELIORATING, OR TREATING CANCER COMPRISING STEPPOGENIN AS ACTIVE INGREDIENT” (Kyungpook National University Industry-Academic Cooperation …, priority 2022, dated 2024).

How the values were obtained:
HIF-1α = assay: Western blot analysis of HIF-1α protein expression under hypoxia; assay type: cell-based, human; conditions: for HIF-1α protein levels: dose-dependent, maximum dose 3 µM (FIG. 4a)
Method: (§1) Proteins were extracted from cultured cells using RIPA lysis buffer (Thermo Scientific, Waltham, MA, USA). The protein extracts were separated using SDS-PAGE and transferred to nitrocellulose membranes (Whatman, Maidstone, England). The membranes were blocked with 5% skim milk in Tris-buffered saline containing 0.1% Tween-20 for 1 hour at room temperature. After blocking, the membranes were incubated with specific primary antibodies overnight at 4°C, and then incubated with secondary antibodies for 1 hour at room temperature. Proteins were detected using the Enhanced Chemiluminescence Kit (Bio-Rad, Hercules, CA, USA) according to the manufacturer's instructions. Primary antibodies against HIF-1α (BD Biosciences, San Diego, CA, USA), VEGF (Santa Cruz Biotechnology, Santa Cruz, CA, USA), CXCR4 (Abcam, Cambridge, UK), CA9 (Abcam), DLL4 (Santa Cruz Biotechnology), NOTCH1 (Thermo Scientific), and β-actin (Santa Cruz Biotechnology) were used.
To determine the effect of the selected natural compounds on HIF-1α protein expression, Western blotting was performed on HEK293T cells. […] Accordingly, the effect of five compounds with HIF-1α inhibitory activity on DLL4 reporter activity in ECs was also investigated. […] Therefore, Compound #57 was selected as a potential inhibitor of HIF-1α and DLL4.

DLL4 [1] = assay: DLL4-luciferase dual-luciferase assay in EA.hy926 cells with VEGF; assay type: cell-based, human
Method: To perform the HRE-luciferase assay, HEK293T cells were seeded in a 96-well plate at a density of 5×10^3 cells/well and cultured at 37°C. Next, cells were co-transfected with pGL3-HRE-luciferase plasmid and pRL-SV40 Renilla plasmid containing 5 copies of HRE of human VEGF gene using a vivamagic transfection reagent (Vivagen, Seongnam, Korea) (Kwon et al., 2015). After 24 h, cells were pretreated with various concentrations of natural compounds for 1 h and then incubated under hypoxia conditions for 24 h. To perform the DLL4-luciferase assay, EA.hy926 cells were seeded in 24-well plates at a density of 4 × 10^4 cells/well and cultured at 37 °C for 24 h. Cells were co-transfected with pGL3-DLL4 luciferase and pRL-SV40 Renilla plasmids using Lipofectamine 2000 (Invitrogen) and cultured at 37°C for 24 h. Next, the cells were incubated with various concentrations of natural compounds for 1 h and then incubated for 24 h in the presence or absence of VEGF (10 ng/mL). The luminescence of HRE- and DLL4-promoter activities was detected using a microplate reader and the Dual-Luciferase Assay Kit (Promega, Madison, WI, USA) according to the manufacturer's instructions. The luciferase activity of the natural compounds was normalized to Renilla luciferase activity.

DLL4 [2] = assay: Western blot analysis of VEGF-induced DLL4 protein level in endothelial cells; assay type: cell-based, human
Method: as §1

HEK293T cells = assay: Lactate dehydrogenase cytotoxicity assay; assay type: cell-based, human; conditions: LDH release, hypoxia 24 h, compared to vehicle treatment (FIG. 3b)
Method: HEK293T cells were seeded at 2 × 10^3 cells/well in 96-well plates and cultured at 37 °C for 24 h. Next, the cells were treated with various concentrations of steppogenin for 24 h under hypoxia conditions. Lactate dehydrogenase (LDH) release values were evaluated using the Cytotoxicity LDH Assay Kit-WST (DOJINDO) according to the manufacturer's instructions. Cytotoxicity was measured using a microplate reader (Infinite M200 Pro; TECAN) at 490 nm.

[3] = test system: HIF-1α target genes VEGF, GLUT1, CXCR4, and CA9; assay: Western blot analysis of HIF-1α target gene protein levels; assay type: cell-based; conditions: hypoxia, compared to vehicle control group (FIG. 4d)
Method: as §1

[4] = test system: Lewis lung carcinoma (LLC)-allografted tumor models; assay: Lewis lung carcinoma allograft tumor model with immunohistochemical analysis; assay type: in vivo, C57BL/6J mice
Method: Six-week-old adult male C57BL/6J mice (SLC, Japan) were used and housed in a specific pathogen-free facility with an individual ventilation system at Kyungpook National University.
To manufacture Lewis lung carcinoma (LLC)-allografted tumor models, LLC cell suspensions (5 × 10^5 cells in 200 µL of serum-free culture medium) were subcutaneously transplanted into the dorsal flank area of 6-week-old male C57BL/6J mice. After inoculating the LLC cells, the mice were administered 17-AAG (25 mg/kg) or steppogenin (2 mg/kg) via intraperitoneal injection at various time points. Next, tumor volumes were measured according to the following formula: V = 0.5 × A × B^2, where A and B represent the longest and shortest dimensions, respectively. Finally, the mice were anesthetized and tissues were collected for further analysis.
For immunohistochemical analysis, collected tumor or tissue samples were fixed in 4% paraformaldehyde and embedded in tissue-freezing medium (Leica, Wetzlar, Germany). Frozen blocks were cut into 10 µm sample sections, blocked with 3% BSA in PBST (0.3% Triton X-100 in PBS), and incubated overnight at 4 °C with appropriate primary antibodies. Primary antibodies were as follows: anti-CD34 (Boster Bio, CA, USA), anti-DLL4 (R&D Systems, MN, USA), anti-pimonidazole (Hypoxyprobe-1, HPI, MA, USA), anti-CD3 (Abcam), anti-CD4 (Invitrogen), and anti-CD8 (Invitrogen). After several washes, the samples were incubated with recommended fluorophore-tagged secondary antibodies for 1 hour at room temperature. Next, cell nuclei were stained using Antifade Mounting Medium containing DAPI (Vector Laboratories, Burlingame, CA). Immunofluorescence images were acquired using a Zeiss confocal microscope (Carl Zeiss, Germany). Next, pimonidazole hydrochloride (60 mg/kg; Hypoxyprobe-1, HPI) was injected intravenously through the tail vein of mice and anesthetized 90 minutes later. Finally, tumor tissues were collected for further analysis.
To determine whether steppogenin induces vascular normalization, T-cell infiltration in tumor tissues was examined.

[5] = ECs, VEGF treatment, screening (FIG. 2c)
[6] = immunohistochemical staining, compared to control group, 17-AAG 25 mg/kg, steppogenin 2 mg/kg (FIG. 6c)
[7] = tumor tissues, steppogenin 2 mg/kg (FIG. 6e)

O=C1C[C@@H](c2ccc(O)cc2O)Oc2cc(O)cc(O)c21 [steppogenin, (2S)-2-(2,4-dihydroxyphenyl)-5,7-dihydroxy-2,3-dihydrochromen-4-one]
HIF-1α protein levels (HIF-1α; A549, hypoxia): significantly inhibited
HIF-1α protein levels (HIF-1α; ARPE19, hypoxia): significantly inhibited
HIF-1α protein expression (HIF-1α; HEK293T cells, hypoxia, screening of selected compounds (FIG. 2b)): inhibited
HIF-1α protein levels (HIF-1α; HEK293T, hypoxia): significantly inhibited
DLL4-luciferase reporter activity (DLL4 [1]; 0.3 to 10.0 µM, VEGF-treated (FIG. 3e)): significantly reduced
DLL4 luciferase activity induced by VEGF (DLL4 [1]; [5]): significantly suppressed
IC50 (DLL4 [1]; Homo sapiens, EA.hy 926, EA.hy926 cells (FIG. 3f)): 8.46 ± 1.08 µM
DLL4 protein level induced by VEGF (DLL4 [2]; [5]): significantly suppressed
VEGF-induced DLL4 protein levels (DLL4 [2]; HUVECs (FIG. 5a)): dose-dependently reduced
cytotoxicity (HEK293T cells): not altered
protein levels of CA9 [3]: suppressed
protein levels of CXCR4 [3]: suppressed
protein levels of VEGF [3]: suppressed
average body weights between the groups during the administration period ([4]; 17-AAG 25 mg/kg, steppogenin 2 mg/kg, intraperitoneal (FIG. 6b)): no significant difference
tumor growth ([4]; 17-AAG 25 mg/kg, steppogenin 2 mg/kg, intraperitoneal, days 7, 9, 11, 13, 15 (FIG. 6a)): significantly inhibited
HIF-1α expression level in tumors [4, 6]: significantly reduced
hypoxic region in tumors [4, 6]: significantly reduced
microvessel density analyzed using CD34 antibody ([4]; steppogenin 2 mg/kg, compared to control tissue (FIG. 6d)): significantly reduced
infiltration of CD3+ T cells [4, 7]: significantly increased
ratio of CD8+ to CD4+ T cells in tumors [4, 7]: decreased
